This is an account of results in patent US20220315572A1, “SUBSTITUTED CYANOPYRROLIDINES WITH ACTIVITY AS USP30 INHIBITORS” (MISSION THERAPEUTICS LIMITED, priority 2019, published 2022).

For assay [1], the system named is USP2, USP10, USP16, USP21, USP22, USP25, USP28, USP35, USP46. Put plainly: DUB biochemical IC50 assays, nine DUBs. The note with it: range over the nine DUBs; for IC50: Ref. Ex. C excl. USP22, Ref. Ex. D excl. USP2, 46.
In assay [2] the test system is HCT116 human colorectal carcinoma cells. Put plainly: In vitro cytotoxicity (Cell Tox), alamarBlue. The note with it: for EC50: Homo sapiens, HCT-116, 96-hour continual compound exposure, alamarBlue. It counts as cell-based. The text has this: There is also a need for compounds that have a favourable safety profile, which may be measured by a variety of standard in vitro and in vivo methods. A cell toxicity counter-screen may be used to assay the anti-proliferative/cytotoxic effect in a particular cell line (e.g. HCT116) by fluorometric detection of rezasurin (alamarBlue) to resofurin in response to mitochondrial activity.
In Vitro Cytotoxicity (Cell Tox): Measured in HCT116 human colorectal carcinoma cells using alamarBlue as the assay endpoint. Compound cytotoxicity was measured over a period of 96-hour continual compound exposure.

For the next assay, the target named is T1, USP30 (Homo sapiens, UniProt Q70CQ3).
T1 construct: purchased Boston Biochem E582
T1 sequence (Q70CQ3 57-517 limits assumed): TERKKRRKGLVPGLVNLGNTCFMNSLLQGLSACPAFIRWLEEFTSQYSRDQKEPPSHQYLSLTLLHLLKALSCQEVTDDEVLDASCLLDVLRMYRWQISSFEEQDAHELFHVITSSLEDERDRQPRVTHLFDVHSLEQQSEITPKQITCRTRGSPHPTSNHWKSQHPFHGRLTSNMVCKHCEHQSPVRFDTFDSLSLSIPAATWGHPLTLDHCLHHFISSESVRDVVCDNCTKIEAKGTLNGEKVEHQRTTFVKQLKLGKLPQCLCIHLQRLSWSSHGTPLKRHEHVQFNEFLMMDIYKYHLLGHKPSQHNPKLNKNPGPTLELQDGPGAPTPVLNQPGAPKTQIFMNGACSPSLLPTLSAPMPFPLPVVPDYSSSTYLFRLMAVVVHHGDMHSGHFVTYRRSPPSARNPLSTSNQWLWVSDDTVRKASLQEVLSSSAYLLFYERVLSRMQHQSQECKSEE
Description: USP30 biochemical IC50 assay (fluorescence polarisation). The note with it: for IC50: USP30 biochemical IC50 assay, exemplary compounds, read-out: IC50; for fold more potent against USP30 than Reference Example A: v Reference Example A; for fold more potent against USP30 than Reference Example E: v Reference Example E; for fold more potent against USP30 than Reference Example F: v Reference Example F; for fold more potent against USP30 than Reference Example G: v Reference Example G. As for the experimental part: Dilution plates were prepared at 21 times the final concentration (2100 μM for a final concentration of 100 μM) in 50% DMSO in a 96-well polypropylene V-bottom plate (Greiner #651201). A typical 8-point dilution series would be 100, 30, 10, 3, 1, 0.3, 0.1, 0.03 μM final. Reactions were performed in duplicate in black 384 well plates (small volume, Greiner 784076) in a final reaction volume of 21 μl. Either […] of 50% DMSO or diluted compound was added to the plate. USP30 (Boston Biochem #E582) was diluted in reaction buffer (40 mM Tris, pH 7.5, 0.005% Tween 20, 0.5 mg/ml BSA, 5 mM beta-mercaptoethanol) to achieve a final assay concentration of 4 nM, and 10 μl of diluted USP30 was added to the compound. Enzyme and compound were incubated for 30 min at room temp. Reactions were initiated by the addition of 50 nM of TAMRA labelled peptide linked to ubiquitin via an iso-peptide bond as fluorescence polarisation substrate. Reactions were read immediately after addition of substrate and following a 2-hour incubation at room temperature. Readings were performed on a Pherastar Plus (BMG Labtech). λ Excitation 540 nm; λ Emission 590 nm.
(In general: Fluorescence polarisation rises when a labelled molecule tumbles more slowly, as on binding a larger partner.)

The target in a further assay is T2, Cathepsin K (Homo sapiens, UniProt P43235).
T2 sequence (P43235 115-329): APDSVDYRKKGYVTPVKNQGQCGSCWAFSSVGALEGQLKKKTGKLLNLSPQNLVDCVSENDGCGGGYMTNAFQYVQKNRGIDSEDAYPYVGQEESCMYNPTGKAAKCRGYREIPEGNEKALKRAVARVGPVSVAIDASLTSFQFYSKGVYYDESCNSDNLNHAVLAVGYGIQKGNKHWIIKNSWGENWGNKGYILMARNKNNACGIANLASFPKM
Put plainly: Cathepsin IC50, cathepsin K. The format is biochemical.

For another assay, the target named is Cathepsin V (Homo sapiens, UniProt O60911). Put plainly: Cathepsin IC50, cathepsin V. The format is biochemical.
Chain of Cathepsin V (O60911 114-334, species assumed): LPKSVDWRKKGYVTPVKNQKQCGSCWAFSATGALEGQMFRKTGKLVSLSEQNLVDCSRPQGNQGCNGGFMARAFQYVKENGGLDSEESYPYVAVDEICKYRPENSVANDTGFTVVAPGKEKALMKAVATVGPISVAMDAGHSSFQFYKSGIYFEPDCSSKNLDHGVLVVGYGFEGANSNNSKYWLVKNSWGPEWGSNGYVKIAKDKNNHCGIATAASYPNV

The structures appear in SMILES notation.

Broadly, the IC50 is the point on the concentration scale where inhibition reaches its midpoint. Usually EC50 stands for the concentration giving half of the maximal effect. Read a low EC50 as an effect from little substance. On to `C[C@@H]1C[C@@H](NC(=O)c2nnc(-c3cccc(C#N)c3)o2)CN1C#N` [Example 1, N-((3R,5R)-1-Cyano-5-methylpyrrolidin-3-yl)-5-(3-cyanophenyl)-1,3,4-oxadiazole-2-carboxamide], for which, in assay [1], the “DUB selectivity preference for USP30 v 9 DUBs” value is given as 200-6900 and the IC50 fell in the range of 5.8 to 202 µM. Moreover, in assay [2], the “Cell Tox EC50/USP30 IC50” value is reported as over 1000 and the half-maximal effective concentration (EC50) was over 30 µM. Moreover, the IC50 on USP30 turned out to be 0.029 µM. Also, on USP30 (biochemical assay), the “fold more potent against USP30 than Reference Example A” value was 2.4 fold, the “fold more potent against USP30 than Reference Example E” value came out at 10.7 fold, the “fold more potent against USP30 than Reference Example F” value was 24 fold and the “fold more potent against USP30 than Reference Example G” value worked out at 152 fold. This compound also yielded an IC50 against Cathepsin K of 26.2 µM. This compound also showed a concentration for half-maximal inhibition (IC50) at Cathepsin V of 176 µM.
For `N#Cc1cccc(-c2nnc(C(=O)N[C@@H]3C[C@@H](CF)N(C#N)C3)o2)c1` [Example 3, N-((3R,5S)-1-Cyano-5-(fluoromethyl)pyrrolidin-3-yl)-5-(3-cyanophenyl)-1,3,4-oxadiazole-2-carboxamide], in assay [1], the “DUB selectivity preference for USP30 v 9 DUBs” value is given as 338-23000 and the concentration for half-maximal inhibition (IC50) is at least 4.4 µM. Also, in assay [2], the “Cell Tox EC50/USP30 IC50” value is over 2300 and the half-maximal effective concentration (EC50) is over 30 µM. Besides, the IC50 at USP30 worked out at 0.013 µM. Moreover, on USP30 (biochemical assay), the “fold more potent against USP30 than Reference Example A” value is 5.4 fold, the “fold more potent against USP30 than Reference Example E” value is given as 24 fold, the “fold more potent against USP30 than Reference Example F” value came to 54 fold and the “fold more potent against USP30 than Reference Example G” value came to 338 fold. The “fold more potent against USP30 than Reference Example B” value on USP30 (biochemical assay, v Reference Example B) is on record as 3.4 fold. In addition, the “fold more potent against USP30 than Reference Example C” value on USP30 (biochemical assay, v Reference Example C) is recorded as 2 fold. The “fold more potent against USP30 than Reference Example D” value at USP30 (biochemical assay, v Reference Example D) was found to be 3.2 fold. This compound also returned a concentration for half-maximal inhibition (IC50) against Cathepsin K of 18.8 µM. The compound further came in with an IC50 against Cathepsin V of 42.9 µM.
